Source: patent US8207139B2, “Function of GPR4 in vascular inflammatory response to acidosis and related methods” (priority 2009, dated 2012)
Entries after “also recorded” stand apart in the source; their conditions may differ.

Key:
[1] = test system: acidosis/GPR4-induced HUVEC cell adhesion; test: HUVEC-U937 monocyte cell adhesion assay; type: cell-based, human; settings: HUVEC cells treated with acidic pH, attachment of U937 monocytes as readout
Procedure: Cell adhesion assay: To examine the adhesion of HUVEC endothelial cells and to model the interaction between endothelium and immune cells, the HUVEC-U937 monocyte adhesion assay was used as a functional readout. […] In brief, HUVEC endothelial cells were cultured in a 24-well plate to form a confluent monolayer, and treated with EGM-2/HEM media at various pHs for 5 to 15 hours. After the pH treatment, HUVEC cells were washed once with DMEM medium (pH 7.4), and then U937 monocytic cells resuspended in DMEM with 10% fetal bovine serum (FBS) were added to the HUVEC monolayer to allow adhesion for 1 hour at pH 7.4. Non-adherent cells were removed by gently washing several times with DMEM medium.
Effects on HUVEC cell adhesion: HUVEC cells with GPR4 siRNA or control siRNA were treated with different pHs, and the U937-HUVEC cell adhesion assay was performed.

[2] = test system: acidosis/GPR4-induced HUVEC cell adhesion; test: HUVEC-U937 monocyte cell adhesion assay; type: cell-based, human; settings: treatment with cAMP pathway activators, attachment of U937 monocytes as readout

Molecule: C[C@H]1O[C@@H](n2cnc3c(N)ncnc32)C[C@@H]1O [2′,5′-dideoxyadenosine]
- effect on acidosis/GPR4-induced HUVEC cell adhesion [1]: reduced; also recorded: abolishes; also recorded: diminishes

Molecule: CO[C@@H]1[C@@H]2OP(=O)(O)OC[C@H]2O[C@H]1n1c(Sc2ccc(Cl)cc2)nc2c(N)ncnc21 [8-CPT-2Me-cAMP]
- effect on adhesion of HUVEC cells [2]: increases

Molecule: O=S(=O)(NCCNC/C=C/c1ccc(Br)cc1)c1cccc2cnccc12 [H-89]
- effect on acidosis/GPR4-induced HUVEC cell adhesion [1]: did not affect; also recorded: does not affect

Molecule: Nc1ncnc2c1ncn2C1CCCO1 (centres unmarked) [SQ 22536]
- effect on acidosis/GPR4-induced HUVEC cell adhesion [1]: abolishes; also recorded: reduces

Molecule: pertussis toxin
- effect on adhesion of HUVEC cells [2]: enhanced; also recorded: increases
